Measured values from the supplement of paper PMC11451515.

System: SEM cells
Experiment: cell viability relative to DMSO control; higher = less cytotoxic
Conditions: 48 h
How it was run: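 Viability, reported as a per-plate percentage of DMSO wells with cell-free wells as background, came from CellTiter-Glo One luminescence. Reading took place after 48 h at 37°C. Before that, NOMO1 or SEM (500 cells/well) or P12-Ichikawa (1000 cells/well) leukemia cells, adapted for at least four passages in each medium, were seeded in 1536-well plates (5 μl) and pin-dosed with library compounds in DMSO, 47 μM to 0.79 nM over 11 threefold points.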

[1] = HPLM + 10% dialyzed FBS, 0.000781 µM
[2] = HPLM + 10% dialyzed FBS, 0.00234 µM
[3] = HPLM + 10% dialyzed FBS, 0.00702 µM
[4] = HPLM + 10% dialyzed FBS, 0.0211 µM
[5] = HPLM + 10% dialyzed FBS, 0.0632 µM
[6] = HPLM + 10% dialyzed FBS, 0.19 µM
[7] = HPLM + 10% dialyzed FBS, 0.569 µM
[8] = HPLM + 10% dialyzed FBS, 1.71 µM
[9] = HPLM + 10% dialyzed FBS, 5.12 µM
[10] = HPLM + 10% dialyzed FBS, 15.4 µM
[11] = HPLM + 10% dialyzed FBS, 46.1 µM
[12] = RPMI 5 mM glucose + 10% FBS, 0.000781 µM
[13] = RPMI 5 mM glucose + 10% FBS, 0.00234 µM
[14] = RPMI 5 mM glucose + 10% FBS, 0.00702 µM
[15] = RPMI 5 mM glucose + 10% FBS, 0.0211 µM
[16] = RPMI 5 mM glucose + 10% FBS, 0.0632 µM
[17] = RPMI 5 mM glucose + 10% FBS, 0.19 µM
[18] = RPMI 5 mM glucose + 10% FBS, 0.569 µM
[19] = RPMI 5 mM glucose + 10% FBS, 1.71 µM
[20] = RPMI 5 mM glucose + 10% FBS, 5.12 µM
[21] = RPMI 5 mM glucose + 10% FBS, 15.4 µM
[22] = RPMI 5 mM glucose + 10% FBS, 46.1 µM
[23] = RPMI 5 mM glucose + 10% dialyzed FBS, 0.000781 µM
[24] = RPMI 5 mM glucose + 10% dialyzed FBS, 0.00234 µM
[25] = RPMI 5 mM glucose + 10% dialyzed FBS, 0.00702 µM
[26] = RPMI 5 mM glucose + 10% dialyzed FBS, 0.0211 µM
[27] = RPMI 5 mM glucose + 10% dialyzed FBS, 0.0632 µM
[28] = RPMI 5 mM glucose + 10% dialyzed FBS, 0.19 µM
[29] = RPMI 5 mM glucose + 10% dialyzed FBS, 0.569 µM
[30] = RPMI 5 mM glucose + 10% dialyzed FBS, 1.71 µM
[31] = RPMI 5 mM glucose + 10% dialyzed FBS, 5.12 µM
[32] = RPMI 5 mM glucose + 10% dialyzed FBS, 15.4 µM
[33] = RPMI 5 mM glucose + 10% dialyzed FBS, 46.1 µM

| Structure (SMILES) | cell viability [1] [%] | cell viability [2] [%] | cell viability [3] [%] | cell viability [4] [%] | cell viability [5] [%] | cell viability [6] [%] | cell viability [7] [%] | cell viability [8] [%] | cell viability [9] [%] | cell viability [10] [%] | cell viability [11] [%] | cell viability [12] [%] | cell viability [13] [%] | cell viability [14] [%] | cell viability [15] [%] | cell viability [16] [%] | cell viability [17] [%] | cell viability [18] [%] | cell viability [19] [%] | cell viability [20] [%] | cell viability [21] [%] | cell viability [22] [%] | cell viability [23] [%] | cell viability [24] [%] | cell viability [25] [%] | cell viability [26] [%] | cell viability [27] [%] | cell viability [28] [%] | cell viability [29] [%] | cell viability [30] [%] | cell viability [31] [%] | cell viability [32] [%] | cell viability [33] [%] |
| --- | --- | --- | --- | --- | --- | --- | --- | --- | --- | --- | --- | --- | --- | --- | --- | --- | --- | --- | --- | --- | --- | --- | --- | --- | --- | --- | --- | --- | --- | --- | --- | --- | --- |
| CC1(C)O[C@H]2CC(=O)OC[C@]23[C@H]2CC[C@@]4(C)[C@H](c5ccoc5)OC(=O)[C@H]5O[C@]54[C@]2(C)C(=O)C[C@@H]13 | 84.1 | 86.8 | 95.3 | 96.2 | 108 | 106 | 104 | 105 | 96.7 | 89.4 | 98.7 | 83.8 | 98.8 | 98.4 | 88.8 | 99.2 | 86 | 105 | 88.2 | 96.5 | 85.2 | 93.2 | 74.6 | 102 | 97.5 | 83.1 | 99 | 90 | 109 | 76.6 | 84.8 | 102 | 90 |
| COc1ccc(-c2c(-c3ccc(O)cc3O)n[nH]c2C)cc1 | 98.3 | 95.8 | 114 | 108 | 110 | 108 | 88.8 | 95.5 | 86 | 62.2 | 51.1 | 114 | 104 | 107 | 109 | 108 | 108 | 103 | 84.3 | 84.1 | 44 | 20.9 | 98.6 | 96.8 | 93 | 101 | 103 | 108 | 96.2 | 99.5 | 87 | 54.4 | 30.9 |
| CC(C)[C@@H](N(CCCN)C(=O)C1=CC=C(C)C=C1)C/2=C(\CC3=CC=CC=C3)C(=O)C4=C(O2)C=C(Cl)C=C4 | 22.2 | 26.3 | 24.4 | 24.6 | 26.6 | 23.9 | 28.2 | 25.2 | 25.7 | 26.6 | 5.56 | 13.8 | 20.2 | 19.9 | 22.5 | 20 | 22.6 | 22.4 | 19.1 | 27.9 | 20.9 | 13.9 | 18.5 | 20.5 | 20 | 25.6 | 19.4 | 26.5 | 20 | 21.1 | 20.8 | 18.5 | 19.4 |
| Cc1nc2c([nH]1)-c1ccccc1N(C(=O)c1ccc(NC(=O)c3ccccc3-c3ccccc3)cc1)CC2 | 91.3 | 115 | 90.8 | 123 | 114 | 122 | 123 | 115 | 113 | 128 | 124 | 123 | 120 | 100 | 138 | 129 | 129 | 141 | 163 | 128 | 149 | 118 | 111 | 143 | 108 | 131 | 140 | 160 | 130 | 121 | 127 | 166 | 124 |
| OC1=C(C=CC=C1)C2=CC=C(C=C2)C3=CSC4=C3C(=C(/C#N)C(=O)N4)/O | 114 | 123 | 131 | 129 | 120 | 132 | 124 | 113 | 96.6 | 113 | 103 | 111 | 109 | 118 | 112 | 105 | 90.5 | 98.6 | 112 | 87.4 | 96.7 | 90.9 | 113 | 117 | 124 | 133 | 121 | 126 | 115 | 117 | 104 | 110 | 100 |
| CN(C)c1ccc(C(=O)NCCCCCCC(=O)NO)cc1 | 97.1 | 94.4 | 91.8 | 88.1 | 97.7 | 96.2 | 93.9 | 34 | 3.1 | 1.85 | 2.9 | 91.8 | 100 | 94.6 | 92 | 112 | 94.8 | 76.2 | 37.3 | 3.1 | 1.95 | 3.03 | 93.2 | 111 | 105 | 96.4 | 95 | 90.7 | 83.5 | 31.4 | 2.63 | 1.52 | 3.31 |
| C[C@H]1[C@@H](CC(C[C@H]2O[C@@H]3O[C@]4(C)CC[C@H]5[C@H](C)CC[C@@H]([C@H]2C)[C@@]35OO4)C[S+](=O)([O-])c2ccc(COC(=O)N(C)C)cc2)O[C@@H]2O[C@]3(C)CC[C@H]4[C@H](C)CC[C@@H]1[C@@]24OO3 | 96.1 | 91.3 | 97.2 | 99.8 | 102 | 89.3 | 72.9 | 5.9 | 7.11 | 6.96 | 4.59 | 101 | 103 | 91.3 | 115 | 106 | 108 | 23.9 | 6.39 | 7.58 | 7.01 | 5.47 | 109 | 112 | 94.1 | 105 | 107 | 104 | 27.5 | 6.28 | 6.52 | 6.47 | 4.61 |
